Reference: patent US10280170B2, “Substituted 4,5,6,7-tetrahydro-pyrazolo[1,5-a]pyrazine derivatives and 5,6,7,8-tetrahydro-4H-pyrazolo[1,5-a][1,4]diazepine derivatives as Ros1 inhibitors” (Janssen Pharmaceutica NV, priority 2014, dated 2019)
Where two headings read alike, the source gives them in different places.

How the values were obtained:
Ros1 enzyme = target: T1, Ros1 enzyme (Homo sapiens, UniProt P08922); assay: Ros1 enzymatic assay; type: biochemical; conditions: Ros1 enzymatic assay; for IC50: read-out: ROS1 pIC50 (converted)
T1 construct: 0.5 μg/ml Ros1 enzyme
T1 sequence (P08922 28-2347): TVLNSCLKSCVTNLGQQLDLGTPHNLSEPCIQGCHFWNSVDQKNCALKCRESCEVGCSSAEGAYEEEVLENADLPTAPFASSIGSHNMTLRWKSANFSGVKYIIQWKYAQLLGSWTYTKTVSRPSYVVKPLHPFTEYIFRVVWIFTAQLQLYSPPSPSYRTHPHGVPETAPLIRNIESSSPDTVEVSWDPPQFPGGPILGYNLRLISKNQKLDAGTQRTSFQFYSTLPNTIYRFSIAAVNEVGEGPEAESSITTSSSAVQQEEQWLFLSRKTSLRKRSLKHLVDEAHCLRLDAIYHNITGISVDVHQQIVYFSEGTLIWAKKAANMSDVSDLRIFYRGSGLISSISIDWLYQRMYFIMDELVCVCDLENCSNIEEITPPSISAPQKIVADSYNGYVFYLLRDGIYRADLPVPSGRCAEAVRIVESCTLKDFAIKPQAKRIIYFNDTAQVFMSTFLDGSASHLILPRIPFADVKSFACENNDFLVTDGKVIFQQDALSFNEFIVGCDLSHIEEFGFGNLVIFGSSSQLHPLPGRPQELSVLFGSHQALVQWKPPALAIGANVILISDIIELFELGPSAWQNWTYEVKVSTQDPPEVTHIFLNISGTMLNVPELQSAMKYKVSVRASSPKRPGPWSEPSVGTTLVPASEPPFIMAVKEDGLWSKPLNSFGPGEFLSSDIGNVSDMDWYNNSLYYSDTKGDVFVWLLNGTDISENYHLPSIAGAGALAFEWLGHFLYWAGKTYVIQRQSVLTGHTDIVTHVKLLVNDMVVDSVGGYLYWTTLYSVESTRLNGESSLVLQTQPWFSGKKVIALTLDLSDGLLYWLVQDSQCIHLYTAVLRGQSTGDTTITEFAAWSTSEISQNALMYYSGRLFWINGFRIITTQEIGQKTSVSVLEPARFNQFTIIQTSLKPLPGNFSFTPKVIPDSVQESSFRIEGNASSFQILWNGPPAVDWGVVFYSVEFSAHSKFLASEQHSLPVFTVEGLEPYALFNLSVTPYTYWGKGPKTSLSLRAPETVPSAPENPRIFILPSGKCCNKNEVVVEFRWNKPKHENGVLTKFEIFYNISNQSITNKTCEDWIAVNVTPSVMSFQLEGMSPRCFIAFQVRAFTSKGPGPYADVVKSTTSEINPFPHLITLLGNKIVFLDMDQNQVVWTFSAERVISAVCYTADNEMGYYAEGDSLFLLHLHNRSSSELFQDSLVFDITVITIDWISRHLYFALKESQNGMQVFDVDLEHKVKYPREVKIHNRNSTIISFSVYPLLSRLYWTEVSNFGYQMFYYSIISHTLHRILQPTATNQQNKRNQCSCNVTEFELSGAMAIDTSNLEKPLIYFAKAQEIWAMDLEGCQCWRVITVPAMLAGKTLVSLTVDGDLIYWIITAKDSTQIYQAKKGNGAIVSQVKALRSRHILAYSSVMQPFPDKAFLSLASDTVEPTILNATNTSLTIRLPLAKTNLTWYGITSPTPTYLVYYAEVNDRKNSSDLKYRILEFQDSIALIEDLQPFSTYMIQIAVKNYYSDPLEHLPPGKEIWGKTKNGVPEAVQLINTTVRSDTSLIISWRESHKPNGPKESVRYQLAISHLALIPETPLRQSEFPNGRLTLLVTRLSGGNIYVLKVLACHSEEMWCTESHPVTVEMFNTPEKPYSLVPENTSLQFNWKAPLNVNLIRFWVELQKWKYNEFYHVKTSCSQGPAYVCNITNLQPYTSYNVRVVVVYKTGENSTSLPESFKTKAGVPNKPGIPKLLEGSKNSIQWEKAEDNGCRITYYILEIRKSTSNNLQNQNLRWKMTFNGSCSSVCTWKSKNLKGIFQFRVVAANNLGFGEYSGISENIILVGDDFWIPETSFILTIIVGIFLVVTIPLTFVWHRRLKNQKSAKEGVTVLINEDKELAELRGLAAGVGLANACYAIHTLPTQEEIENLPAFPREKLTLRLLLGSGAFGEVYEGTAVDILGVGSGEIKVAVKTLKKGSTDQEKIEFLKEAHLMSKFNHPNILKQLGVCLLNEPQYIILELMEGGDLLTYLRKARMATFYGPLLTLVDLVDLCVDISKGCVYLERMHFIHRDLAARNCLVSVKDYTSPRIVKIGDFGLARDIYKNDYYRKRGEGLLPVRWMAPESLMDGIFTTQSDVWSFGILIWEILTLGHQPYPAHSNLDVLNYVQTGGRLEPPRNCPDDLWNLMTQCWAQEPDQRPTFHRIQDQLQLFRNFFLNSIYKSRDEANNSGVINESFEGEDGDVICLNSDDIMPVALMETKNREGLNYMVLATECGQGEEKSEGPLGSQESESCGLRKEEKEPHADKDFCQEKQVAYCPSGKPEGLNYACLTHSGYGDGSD
How it was run: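 Ros1 (0.5 μg/ml in enzyme mix) was combined with a substrate mix of biotinylated IRS-Tide (6 μg/ml) and 20 μM ATP spiked with 33P-ATP in 50 mM Tris-HCl pH7.5, 10 mM MgCl2, 1 mM EGTA, 0.01% Tween-20. Reaction ran 120 min at room temperature before EDTA stop.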

[1] = target: T2, Ba/F3 cells containing Ros1 wild-type protein (Homo sapiens, UniProt P08922, cells depend on it, form not given); assay: Ba/F3-Ros1 cell proliferation assay, wild-type Ros1; type: cell-based, murine; conditions: without IL-3
T2 construct: The background only speaks of 'a number of different unrelated proteins' and names SLC34A2-ROS1 for HCC78 cells
T2 sequence (P08922 whole entry, stated change not applied): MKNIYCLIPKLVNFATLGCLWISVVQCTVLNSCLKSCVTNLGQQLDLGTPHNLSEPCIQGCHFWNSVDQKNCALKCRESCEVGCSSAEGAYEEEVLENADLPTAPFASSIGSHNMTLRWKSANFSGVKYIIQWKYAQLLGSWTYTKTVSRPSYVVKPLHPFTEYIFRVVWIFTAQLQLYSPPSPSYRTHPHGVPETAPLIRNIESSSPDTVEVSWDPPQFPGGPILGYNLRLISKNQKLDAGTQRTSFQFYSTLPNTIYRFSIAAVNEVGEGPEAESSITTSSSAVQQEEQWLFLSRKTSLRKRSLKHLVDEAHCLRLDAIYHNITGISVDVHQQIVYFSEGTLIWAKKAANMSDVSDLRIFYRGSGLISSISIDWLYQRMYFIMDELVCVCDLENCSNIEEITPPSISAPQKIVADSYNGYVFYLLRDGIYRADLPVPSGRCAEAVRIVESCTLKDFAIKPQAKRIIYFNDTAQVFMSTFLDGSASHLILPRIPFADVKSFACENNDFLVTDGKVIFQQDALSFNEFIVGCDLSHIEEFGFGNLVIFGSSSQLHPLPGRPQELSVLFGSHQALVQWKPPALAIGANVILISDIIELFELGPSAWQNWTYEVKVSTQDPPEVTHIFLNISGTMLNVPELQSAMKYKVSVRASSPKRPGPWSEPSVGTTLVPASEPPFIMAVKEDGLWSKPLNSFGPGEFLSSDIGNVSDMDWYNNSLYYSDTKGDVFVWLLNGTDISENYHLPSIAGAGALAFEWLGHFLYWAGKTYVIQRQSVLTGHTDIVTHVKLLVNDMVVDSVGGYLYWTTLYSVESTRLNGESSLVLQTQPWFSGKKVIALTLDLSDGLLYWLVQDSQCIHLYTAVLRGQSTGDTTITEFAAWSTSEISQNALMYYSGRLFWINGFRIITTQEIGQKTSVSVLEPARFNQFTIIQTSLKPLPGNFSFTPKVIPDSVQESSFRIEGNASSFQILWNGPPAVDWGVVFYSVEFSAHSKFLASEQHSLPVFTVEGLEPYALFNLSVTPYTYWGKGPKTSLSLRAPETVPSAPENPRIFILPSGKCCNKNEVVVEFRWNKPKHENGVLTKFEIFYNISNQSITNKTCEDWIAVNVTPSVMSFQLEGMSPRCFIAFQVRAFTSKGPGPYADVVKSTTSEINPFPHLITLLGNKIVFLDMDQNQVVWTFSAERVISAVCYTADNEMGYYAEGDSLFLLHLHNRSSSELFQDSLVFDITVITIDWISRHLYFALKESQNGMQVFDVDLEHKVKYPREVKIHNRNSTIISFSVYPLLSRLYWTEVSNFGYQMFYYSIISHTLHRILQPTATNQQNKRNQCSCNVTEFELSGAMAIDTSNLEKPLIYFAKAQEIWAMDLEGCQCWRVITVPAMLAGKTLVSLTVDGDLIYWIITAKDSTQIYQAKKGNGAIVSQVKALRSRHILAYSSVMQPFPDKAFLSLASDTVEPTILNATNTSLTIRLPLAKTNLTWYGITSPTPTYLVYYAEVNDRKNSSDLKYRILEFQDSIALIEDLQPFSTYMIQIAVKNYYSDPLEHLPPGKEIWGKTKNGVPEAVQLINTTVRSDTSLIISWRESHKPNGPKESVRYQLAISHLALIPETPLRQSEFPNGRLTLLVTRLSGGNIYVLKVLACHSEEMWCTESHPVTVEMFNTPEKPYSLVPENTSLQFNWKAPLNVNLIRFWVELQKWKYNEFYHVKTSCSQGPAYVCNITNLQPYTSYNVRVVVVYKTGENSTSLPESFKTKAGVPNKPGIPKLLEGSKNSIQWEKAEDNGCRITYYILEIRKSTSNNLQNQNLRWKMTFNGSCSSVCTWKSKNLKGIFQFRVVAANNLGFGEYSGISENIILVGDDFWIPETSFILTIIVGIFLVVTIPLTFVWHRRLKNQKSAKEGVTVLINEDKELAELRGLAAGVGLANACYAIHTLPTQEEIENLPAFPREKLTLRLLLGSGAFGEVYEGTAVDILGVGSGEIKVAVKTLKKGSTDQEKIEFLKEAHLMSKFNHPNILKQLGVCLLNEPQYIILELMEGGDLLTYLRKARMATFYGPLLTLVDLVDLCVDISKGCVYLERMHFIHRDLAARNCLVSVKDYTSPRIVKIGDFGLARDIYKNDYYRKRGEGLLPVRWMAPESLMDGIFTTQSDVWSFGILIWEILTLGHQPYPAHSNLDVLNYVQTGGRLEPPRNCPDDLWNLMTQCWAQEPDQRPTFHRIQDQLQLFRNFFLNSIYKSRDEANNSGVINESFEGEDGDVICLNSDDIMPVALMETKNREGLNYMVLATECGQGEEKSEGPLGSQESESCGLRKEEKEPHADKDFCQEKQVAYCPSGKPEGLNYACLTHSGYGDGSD
How it was run: (§1)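 20000 Ba/F3-Ros1 cells/well (WT, L2026M, G2032R), RPMI-1640 phenol red free + 10% FBS + 2 mM Gln, cpds from DMSO; 24 h, 37 °C, 5% CO2. Alamar Blue 4 h, RFU ex540/em590.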

[2] = target: Ba/F3 cells containing Ros1 with a mutation at the gatekeeper residue (L2026M) (Homo sapiens, UniProt P08922, L2026M, cells depend on it, form not given); assay: Ba/F3-Ros1 cell proliferation assay, L2026M gatekeeper mutant; type: cell-based, murine; conditions: without IL-3
Ba/F3 cells containing Ros1 with a mutation at the gatekeeper residue (L2026M), sequence (P08922 whole entry L2026M, form open): as the sequence (P08922 whole entry, stated change not applied) above, with L2026M counted along it
How it was run: as §1

[3] = tested on: Ba/F3 cells containing Ros1 wild-type protein + IL-3; assay: Ba/F3-Ros1 cell proliferation counter-screen, wild-type protein in the presence of 10 ng/ml murine IL-3; type: cell-based; conditions: Mus musculus, BaF3, 24 h, read-out: BaF3-ROS1 + IL3 pIC50 (converted)
How it was run: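 Ba/F3 cells expressing wild-type Ros1 were grown with 10 ng/ml murine IL-3 and test compound in RPMI-1640 with 10% FBS and 2 mM L-glutamine for 24 h at 37 °C, 5% CO2. Viability was then read as Alamar Blue (resazurin) fluorescence (ex 540/em 590 nm) after 4 h further incubation.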

[4] = tested on: HCC78 non-small cell lung cancer cells; assay: HCC78 cell proliferation assay; type: cell-based; conditions: for EC50: Homo sapiens, HCC78, 96 h, read-out: HCC-78 PROL pEC50 (converted)
Procedure: HCC78 Cell Proliferation Assay
Approximately 1000 HCC78 non-small cell lung cancer cells in 180 μl of cell culture medium (RPMI-1640, 10% FBS, 2 mM L-Glutamine, 10 mM Hepes, 1 mM sodium pyruvate, 4.5 g/L glucose, 1.5 g/L sodium bicarbonate, 25 μg/ml Gentamycin) were seeded in each well of a 96-well polystyrene, tissue-culture treated plate and incubated at 37° C. and 5% CO2. After 24 hours, compounds were diluted in cell culture medium from which 20 μl was added to the wells containing cells and incubated for 4 days at 37° C. and 5% CO2. A 5 mg/ml solution of the tetrazolium dye MTT was prepared in PBS (phosphate-buffered saline) and 25 μl was added to each well. After 2 hours the medium was removed and replaced by 125 μL of 4/1 DMSO/glycine buffer (0.1M glycine, 0.1M NaCl, pH 10.5) before absorbance was determined at 538 nm.

[5] = counter-screen, wild-type, 10 ng/ml murine IL-3

## CC(C)c1ccc(COc2ccc(-c3c(-c4ccncc4)nn4c3C(=O)NCC4)cc2)cc1C#N [Compound 85]
Ros1 enzyme
  IC50: 39.8 nM
[1]
  BaF3-ROS1-IL3 pIC50: 7.4
[2]
  Ba/F3 Ros1 L2026M (-IL-3) pIC50: 7.1
[3]; [5]
  CC50: > 10000 nM
[4]; HCC78 cells, 4 days, MTT
  EC50: 316 nM
other
  melting point: 240 °C

## Cc1cc(C(C)C)ccc1COc1ccc(-c2c(-c3ccncc3)nn3c2C(=O)NCC3)cc1 [Compound 78]
Ros1 enzyme
  IC50: 251 nM
[1]
  BaF3-ROS1-IL3 pIC50: 7.1
[2]
  Ba/F3 Ros1 L2026M (-IL-3) pIC50: 6.9
[3]; [5]
  CC50: > 10000 nM
[4]; HCC78 cells, 4 days, MTT
  EC50: 794 nM
other
  melting point: 247 °C

## CC(C)c1ccc(COc2ccc(-c3c(-c4ccncc4)nn4c3C(=O)N(CC3CCCO3)CC4)cc2)cc1 (stereo not drawn) [Compound 55]
Ros1 enzyme
  IC50: 126 nM
[1]
  BaF3-ROS1-IL3 pIC50: 7.0
[2]
  Ba/F3 Ros1 L2026M (-IL-3) pIC50: 6.8
[3]
  CC50: > 10000 nM
[4]
  EC50: 794 nM
other
  melting point: 165 °C

## CC(C)c1ccc(C(C)Oc2ccc(-c3c(-c4ccncc4)nn4c3C(=O)N(CCO)CC4)cc2)cc1 (stereo not drawn) [Compound 144]
Ros1 enzyme
  IC50: 1260 nM
[1]
  BaF3-ROS1-IL3 pIC50: 6.3
[2]
  Ba/F3 Ros1 L2026M (-IL-3) pIC50: 5.7
[3]; [5]
  CC50: > 10000 nM
[4]; HCC78 cells, 4 days, MTT
  HCC-78 PROL pEC50: 5.0
other
  melting point: 148 °C

## CC(C)c1ccc(COc2ccc(-c3c(-c4ccncc4)nn4c3C(=O)N(CCO)CC4)cc2)cn1 [Compound 81]
Ros1 enzyme
  IC50: 63.1 nM
[1]
  BaF3-ROS1-IL3 pIC50: 7.3
[2]
  Ba/F3 Ros1 L2026M (-IL-3) pIC50: 6.5
[3]
  CC50: > 10000 nM
[4]
  EC50: 158 nM
other
  melting point: 93 °C

## CCC(C)c1ccc(COc2ccc(-c3c(-c4ccncc4)nn4c3C(=O)N(CCO)CC4)cc2)cc1 (stereo not drawn) [Compound 107]
Ros1 enzyme
  IC50: 20 nM
[1]
  BaF3-ROS1-IL3 pIC50: 7.7
[2]
  Ba/F3 Ros1 L2026M (-IL-3) pIC50: 7.4
[3]
  CC50: > 10000 nM
[4]
  EC50: 79.4 nM
other
  melting point: 163 °C

## N#CC1(c2ccc(COc3ccc(-c4c(-c5ccncc5)nn5c4C(=O)NCC5)cc3)cc2)CC1 [Compound 123]
Ros1 enzyme
  IC50: 39.8 nM
[1]
  BaF3-ROS1-IL3 pIC50: 7.4
[2]
  Ba/F3 Ros1 L2026M (-IL-3) pIC50: 7.1
[3]
  CC50: > 10000 nM
[4]
  EC50: 398 nM
other
  melting point: 260 °C

## CC(C)c1ccc(COc2ccc(-c3c(-c4ccncn4)nn4c3C(=O)N(CC(O)CO)CC4)cc2)cc1 (stereo not drawn) [Compound 161]
Ros1 enzyme
  IC50: 50.1 nM
[1]
  BaF3-ROS1-IL3 pIC50: 7.1
[2]
  Ba/F3 Ros1 L2026M (-IL-3) pIC50: 6.7
[3]; [5]
  CC50: > 10000 nM
[4]; HCC78 cells, 4 days, MTT
  EC50: 316 nM
other
  melting point: 209 °C

## CC(C)c1ccc(COc2ccc(-c3c(-c4ccncc4)nn4c3CN(CC(=O)NCCO)CC4)cc2)cc1 [Compound 175]
Ros1 enzyme
  IC50: 100 nM
[1]
  BaF3-ROS1-IL3 pIC50: 6.9
[2]
  Ba/F3 Ros1 L2026M (-IL-3) pIC50: 6.8
[3]
  CC50: 5010 nM
[4]
  EC50: 398 nM
other
  melting point: 189 °C

## CC(O)CN1CCn2nc(-c3ccncc3)c(-c3ccc(OCc4ccc(C5CC5)cc4)cc3)c2C1=O (stereo not drawn) [Compound 135]
Ros1 enzyme
  IC50: 158 nM
[1]
  BaF3-ROS1-IL3 pIC50: 7.3
[2]
  Ba/F3 Ros1 L2026M (-IL-3) pIC50: 7.0
[4]; HCC78 cells, 4 days, MTT
  HCC-78 PROL pEC50: 6.5
other
  melting point: 197 °C

## CC(C)c1ccc(COc2ccc(-c3c(-c4ccncc4)nn4c3C(=O)NCC4)c(Cl)c2)cc1 [Compound 24]
Ros1 enzyme
  IC50: 7.94 nM
[1]
  BaF3-ROS1-IL3 pIC50: 7.8
[2]
  Ba/F3 Ros1 L2026M (-IL-3) pIC50: 8.2
[3]
  CC50: > 10000 nM
[4]
  EC50: 1.58 nM
other
  melting point: 267 °C

## CC(C)c1ccc(COc2ccc(-c3c(-c4ccncc4)nn4c3C(=O)N(CC(O)CO)CC4)c(F)c2)cc1 (stereo not drawn) [Compound 22]
Ros1 enzyme
  ROS1 pIC50: 7.9
[1]
  BaF3-ROS1-IL3 pIC50: 7.8
[2]
  Ba/F3 Ros1 L2026M (-IL-3) pIC50: 7.4
[4]; HCC78 cells, 4 days, MTT
  HCC-78 PROL pEC50: 7.7
other
  melting point: 188 °C

## CC(C)c1ccc(COc2ccc(-c3c(-c4ccncc4F)nn4c3C(=O)NCC4)c(F)c2)cc1 [Compound 152]
Ros1 enzyme
  IC50: 10 nM
[1]
  BaF3-ROS1-IL3 pIC50: 8.0
[2]
  Ba/F3 Ros1 L2026M (-IL-3) pIC50: 8.1
[3]
  CC50: > 10000 nM
[4]
  EC50: 63.1 nM
other
  melting point: 262 °C

## COc1cc(C(C)C)ccc1COc1ccc(-c2c(-c3ccncc3)nn3c2C(=O)NCC3)cc1 [Compound 216]
Ros1 enzyme
  IC50: 63.1 nM
[1]
  BaF3-ROS1-IL3 pIC50: 7.3
[2]
  Ba/F3 Ros1 L2026M (-IL-3) pIC50: 6.9
[3]
  CC50: > 10000 nM
[4]
  EC50: 631 nM
other
  melting point: 200 °C

## CC(C)c1ccc(COc2ccc(-c3c(-c4ccncc4)nn4c3C(=O)N(CC3COC(C)(C)O3)CC4)cc2)cc1 (stereo not drawn) [Compound 42]
Ros1 enzyme
  IC50: 398 nM
[1]
  BaF3-ROS1-IL3 pIC50: 6.7
[2]
  Ba/F3 Ros1 L2026M (-IL-3) pIC50: 6.3
[3]; [5]
  CC50: > 10000 nM
[4]; HCC78 cells, 4 days, MTT
  EC50: 1260 nM
other
  melting point: 114 °C

## CC(O)CN1CCn2nc(-c3ccncc3)c(-c3ccc(OCc4ccc(C(C)C)cc4)cc3)c2C1 (stereo not drawn) [Compound 191]
Ros1 enzyme
  IC50: 158 nM
[1]
  BaF3-ROS1-IL3 pIC50: 6.9
[2]
  Ba/F3 Ros1 L2026M (-IL-3) pIC50: 7.0
[3]; [5]
  CC50: > 10000 nM
[4]; HCC78 cells, 4 days, MTT
  EC50: 501 nM
other
  melting point: 148 °C

## O=C1c2c(-c3ccc(OCc4ccc(C5CC5)c(F)c4)cc3)c(-c3ccncc3)nn2CCN1CCO [Compound 137]
Ros1 enzyme
  IC50: 126 nM
[1]
  BaF3-ROS1-IL3 pIC50: 6.8
[2]
  Ba/F3 Ros1 L2026M (-IL-3) pIC50: 6.4
[3]
  CC50: > 10000 nM
[4]
  EC50: 398 nM
other
  melting point: 185 °C

## CC(C)c1cc(F)c(COc2ccc(-c3c(-c4ccncc4)nn4c3C(=O)N(CC(O)CO)CC4)cc2)cc1F (stereo not drawn) [Compound 99]
Ros1 enzyme
  IC50: 501 nM
[1]
  BaF3-ROS1-IL3 pIC50: 6.6
[2]
  Ba/F3 Ros1 L2026M (-IL-3) pIC50: 6.0
[4]; HCC78 cells, 4 days, MTT
  HCC-78 PROL pEC50: 5.7
other
  melting point: 183 °C

## CC(C)c1ccc(COc2ccc(-c3c(-c4ccncc4)nn4c3C(=O)N(CC(O)CO)CC4)cc2)cc1 (stereo not drawn) [Compound 41]
Ros1 enzyme
  IC50: 31.6 nM
[1]
  BaF3-ROS1-IL3 pIC50: 7.4
[2]
  Ba/F3 Ros1 L2026M (-IL-3) pIC50: 6.6
[4]; HCC78 cells, 4 days, MTT
  HCC-78 PROL pEC50: 7.1
other
  melting point: 191 °C

## CC(C)(CN)c1ccc(COc2ccc(-c3c(-c4ccncc4)nn4c3C(=O)NCC4)cc2)cc1 [Compound 121]
[1]
  BaF3-ROS1-IL3 pIC50: 6.3
[2]
  Ba/F3 Ros1 L2026M (-IL-3) pIC50: 5.9
[3]; [5]
  CC50: > 10000 nM
[4]; HCC78 cells, 4 days, MTT
  EC50: 1000 nM
other
  melting point: 233 °C

## CC(C)c1cc(F)c(COc2ccc(-c3c(-c4ccncc4)nn4c3C(=O)N(CC(O)CO)CC4)cc2)c(F)c1 (stereo not drawn) [Compound 96]
Ros1 enzyme
  ROS1 pIC50: 6.8
[1]
  BaF3-ROS1-IL3 pIC50: 6.9
[2]
  Ba/F3 Ros1 L2026M (-IL-3) pIC50: 6.6
[4]; HCC78 cells, 4 days, MTT
  HCC-78 PROL pEC50: 5.9
other
  melting point: 228 °C
